Assay results as given in publication PMC8036727, “In Vitro Anticancer Potential of Jasione montana and Its Main Components against Human Amelanotic Melanoma Cells” (International Journal of Molecular Sciences, 2021).
In brackets after ≈: the same amount, converted by molar mass. Counter-ions that a name gives are not always drawn.

Tests used:
[1] = tested on: human amelanotic melanoma cell line C32 (CRL-1585); experiment: Fixable viability stain (FVS520) cytotoxicity assay, flow cytometry; format: cell-based; settings: C32 cells, 24 h, 10–300 μg/mL, mean ± SD
Procedure: (§1) The human amelanotic melanoma cell line C32 (CRL-1585) and a normal human fibroblast cell line (PCS-201-012) were cultured in DMEM. DMEM was blended with 10% FBS, 10 µg/mL streptomycin, and […] penicillin. The cells were cultured in 5% CO2 and fully humidified at 37 °C. All tested compounds were used at a final DMSO concentration of not more than 0.5% (v/v). Cells cultured in drug-free DMEM were used as controls, and cells with the addition of only DMSO were used as solvent-controls; VLB was used as a positive control. The JM4 fraction was analyzed at the following concentrations: 25, 50 and 100 µg/mL and compound 22 and VLB were analyzed at 25 µg/mL. For the cytotoxicity assay, all extracts and compounds were tested at the following concentrations: 10, 25, 50, 100, 200, and 300 µg/mL.
This analysis was performed to estimate the level of viable cells after treatment with JM1–JM6, compounds 9, 12, 22 and VLB at concentrations ranging from 10 to 300 µg/mL. Cytotoxicity was evaluated by FVS520 via a flow cytometer (BD FACSCanto II flow cytometer, San Jose, CA, USA). In contrast to nonpermeable live cells, the permeable membranes of necrotic cells allow for the intracellular diffusion of FVS520 and the covalent binding of high concentrations of amines. Thus, necrotic cells contained a higher level of FVS520 and, consequently, increased fluorescence intensity than viable cells. After 24 h of incubation, C32 cells and fibroblasts were washed with PBS, trypsinized and resuspended in DMEM. The supernatant was removed, and 0.5 mL of Stain Buffer with the addition of 1 µL of FVS520 was added to each sample, which was vortexed immediately and kept for 10–15 min in the dark at room temperature. After incubation and the addition of 2 mL of PBS, the supernatant was removed, the cells were resuspended in 300 µL of PBS and then immediately subjected to analysis. The results were analyzed based on FACSDiva software (BD Biosciences Systems, San Jose, CA, USA). Based on the results of the cytotoxicity analysis, further research in this project focused on the determination of the full anticancer mechanism of the most promising fraction JM4 and compound 22.

[2] = tested on: caspase-8 in C32 melanoma cells; experiment: FLICA Caspase-8 assay, flow cytometry; format: cell-based, human; settings: 25 μg/mL, 24 h
Procedure: (§2) The human amelanotic melanoma cell line C32 (CRL-1585) and a normal human fibroblast cell line (PCS-201-012) were cultured in DMEM. […] Cells cultured in drug-free DMEM were used as controls, and cells with the addition of only DMSO were used as solvent-controls; VLB was used as a positive control. The JM4 fraction was analyzed at the following concentrations: 25, 50 and 100 µg/mL and compound 22 and VLB were analyzed at 25 µg/mL. For the cytotoxicity assay, all extracts and compounds were tested at the following concentrations: 10, 25, 50, 100, 200, and 300 µg/mL. Determination of the caspase-3, caspase-8, caspase-9, and caspase-10 activity were carried out by the following kits: FLICA Caspase-3/7 Assay Kit, FLICA Caspase-8 Assay Kit, FLICA Caspase-9 Assay Kit, and FLICA Caspase-10 Assay Kit using a BD FACSCanto II flow cytometer. […] After 1 h, the cells were flushed with apoptosis wash buffer and resuspended in […] of the same reagent with […] PI. The procedure of determining the activity of each caspase was carried out analogously. The results were analyzed with FACSDiva software.

[3] = tested on: C32 melanoma cells; experiment: Annexin V-FITC/PI binding apoptosis assay, flow cytometry; format: cell-based, human; settings: 25 μg/mL, 24 h; for apoptotic cells: untreated control 7.3 ± 1.3%
Procedure: During programmed cell death, annexin V has a high affinity for phosphatidylserine (PS) when it is exposed to the extracellular environment. […] The assay allows differentiability between viable cells (annexin V–/PI–) and early (annexin V–/PI+) and late (annexin V+/PI+) apoptotic cells, as well as necrotic cells (annexin V–/PI+).
The human amelanotic melanoma cell line C32 (CRL-1585) and a normal human fibroblast cell line (PCS-201-012) were cultured in DMEM. DMEM was blended with 10% FBS, 10 µg/mL streptomycin, and 10 units/mol penicillin. The cells were cultured in 5% CO2 and fully humidified at 37 °C. All tested compounds were used at a final DMSO concentration of not more than 0.5% (v/v). Cells cultured in drug-free DMEM were used as controls, and cells with the addition of only DMSO were used as solvent-controls; VLB was used as a positive control.
Characterization of the mode of apoptosis induced by JM4, 22 and VLB was performed in C32 cells via flow cytometry using a FITC Annexin V Apoptosis Detection Kit II. All stages of programmed cell death could be identified by annexin V bound with high affinity to PS. PI is a standard flow cytometric viability explorer that stains cells that interfere with the cell membrane, and it can be used to distinguish necrotic cells from dead cells. After the C32 cells were incubated for 24 h with various concentrations of JM4, 22 and VLB, they were trypsinized and resuspended in binding buffer. After that, 5 µL of annexin V-FITC and 5 µL of PI were added and maintained for 15 min in the dark at room temperature. The results were analyzed using FACSDiva software.

[4] = tested on: caspase-10 in C32 melanoma cells; experiment: FLICA Caspase-10 assay, flow cytometry; format: cell-based, human; settings: 25 μg/mL, 24 h
Procedure: as §2

[5] = tested on: caspase-9 in C32 melanoma cells; experiment: FLICA Caspase-9 assay, flow cytometry; format: cell-based, human; settings: 25 μg/mL, 24 h
Procedure: as §2

[6] = tested on: normal human fibroblast cell line (PCS-201-012); experiment: Fixable viability stain (FVS520) cytotoxicity assay, flow cytometry; format: cell-based; settings: normal human fibroblasts, 24 h, 10–300 μg/mL
Procedure: The human amelanotic melanoma cell line C32 (CRL-1585) and a normal human fibroblast cell line (PCS-201-012) were cultured in DMEM. […] Cells cultured in drug-free DMEM were used as controls, and cells with the addition of only DMSO were used as solvent-controls; VLB was used as a positive control. The JM4 fraction was analyzed at the following concentrations: 25, 50 and 100 µg/mL and compound 22 and VLB were analyzed at 25 µg/mL. For the cytotoxicity assay, all extracts and compounds were tested at the following concentrations: 10, 25, 50, 100, 200, and 300 µg/mL. […] Cytotoxicity was evaluated by FVS520 via a flow cytometer (BD FACSCanto II flow cytometer, San Jose, CA, USA). In contrast to nonpermeable live cells, the permeable membranes of necrotic cells allow for the intracellular diffusion of FVS520 and the covalent binding of high concentrations of amines. Thus, necrotic cells contained a higher level of FVS520 and, consequently, increased fluorescence intensity than viable cells. After 24 h of incubation, C32 cells and fibroblasts were washed with PBS, trypsinized and resuspended in DMEM. […] After incubation and the addition of 2 mL of PBS, the supernatant was removed, the cells were resuspended in 300 µL of PBS and then immediately subjected to analysis. The results were analyzed based on FACSDiva software (BD Biosciences Systems, San Jose, CA, USA). […]

[7] = tested on: C32 melanoma cells; experiment: Mitochondrial membrane potential (MMP), JC-1 MitoScreen, flow cytometry; format: cell-based, human; settings: 25 μg/mL, 24 h; untreated control 5.2 ± 0.1%
Procedure: The human amelanotic melanoma cell line C32 (CRL-1585) and a normal human fibroblast cell line (PCS-201-012) were cultured in DMEM. […] Cells cultured in drug-free DMEM were used as controls, and cells with the addition of only DMSO were used as solvent-controls; VLB was used as a positive control. The JM4 fraction was analyzed at the following concentrations: 25, 50 and 100 µg/mL and compound 22 and VLB were analyzed at 25 µg/mL. For the cytotoxicity assay, all extracts and compounds were tested at the following concentrations: 10, 25, 50, 100, 200, and 300 µg/mL. […] After incubation, the cells were flushed again, resuspended in PBS, and immediately subjected to BD FACSCanto II flow cytometry analysis. The results were analyzed using FACSDiva.

[8] = tested on: C32 melanoma cells; experiment: Cell cycle analysis by PI staining, flow cytometry; format: cell-based, human; settings: 25 μg/mL, 24 h
Procedure: The human amelanotic melanoma cell line C32 (CRL-1585) and a normal human fibroblast cell line (PCS-201-012) were cultured in DMEM. […] Cells cultured in drug-free DMEM were used as controls, and cells with the addition of only DMSO were used as solvent-controls; VLB was used as a positive control. The JM4 fraction was analyzed at the following concentrations: 25, 50 and 100 µg/mL and compound 22 and VLB were analyzed at 25 µg/mL. For the cytotoxicity assay, all extracts and compounds were tested at the following concentrations: 10, 25, 50, 100, 200, and 300 µg/mL. The allocation of cell cycle stage was analyzed on a FACSCanto II flow cytometer. C32 cells were cured with JM4, 22 and VLB for 24 h of incubation. Thereafter, the cells were harvested and adjusted with 1 mL of 70% EtOH and maintained at −20 °C for 24 h. Next, the cells were washed with PBS, treated with 50 µg/mL DNase-free RNase A solution for 5 min at room temperature, stained with 100 µg/mL PI for 30 min at 37 °C, and submitted to flow cytometry analysis. The results were analyzed with FACSDiva software.

[9] = tested on: caspase-3 in C32 melanoma cells; experiment: FLICA Caspase-3/7 assay, flow cytometry; format: cell-based, human; settings: 25 μg/mL, 24 h; untreated control 4.2 ± 1.3%
Procedure: as §1
Determination of the caspase-3, caspase-8, caspase-9, and caspase-10 activity were carried out by the following kits: FLICA Caspase-3/7 Assay Kit, FLICA Caspase-8 Assay Kit, FLICA Caspase-9 Assay Kit, and FLICA Caspase-10 Assay Kit using a BD FACSCanto II flow cytometer. C32 cells were incubated with JM4, compound 22 and VLB for 24 h, washed twice with PBS, resuspended in buffer supplemented with […] of FLICA reagent, and incubated. […] The results were analyzed with FACSDiva software.

[10] = tested on: C32 melanoma cells; experiment: Autophagy Assay, Red, flow cytometry; format: cell-based, human; settings: 25 μg/mL, 24 h
Procedure: as §1
An autophagy assay was carried out to detect the impact of JM4, compound 22, and VLB on the autophagy process of C32 cells via flow cytometry using an Autophagy Assay, Red kit. The probe is a cell-permeable aliphatic molecule that brightly fluoresces after unjumbling […] and autolysosomes into lipid membranes. […] The results were analyzed with FACSDiva software.

SMILES: O=c1cc(-c2ccc(O)c(O)c2)oc2cc(OC3OC(CO)C(O)C(O)C3O)cc(O)c12 [Compound 12, luteolin 7-O-β-D-glucoside]
- IC50 [1]: > 300 µg/mL

SMILES: O=c1cc(-c2ccc(O)c(O)c2)oc2cc(OC3OC(CO)C(O)C(O)C3OC3OCC(O)C(O)C3O)cc(O)c12 [Compound 9, luteolin 7-O-β-D-xylosyl-(1-2)-β-D-glucoside]
- IC50 [1]: > 300 µg/mL

SMILES: O=c1cc(-c2ccc(O)c(O)c2)oc2cc(O)cc(O)c12 [Compound 22, luteolin]
- cells with active caspase-8 [2]: 20.2 ± 1.5%
- apoptotic cells [3]: 29.2 ± 3.0%
- cells with active caspase-10 [4]: 15.4 ± 0.7%
- IC50 [1]: 95.1 ± 7.2 µg/mL (≈ 332 µM)
- cells with active caspase-9 [5]: 16.6 ± 0.8%
- IC50 [6]: 194 ± 4.4 µg/mL (≈ 678 µM)
- cells with a reduced MMP [7]: 31.8 ± 0.7%
- percentage of C32 cells in G2/M phase ([8]; untreated control 6.1 ± 0.6%): 14.6 ± 1.5%
- percentage of C32 cells in G1 phase ([8]; untreated control 73.0 ± 0.9%): 35.3 ± 3.0%

SMILES: CC[C@]1(O)C[C@@H]2CN(CCc3c([nH]c4ccccc34)[C@@](C(=O)OC)(c3cc4c(cc3OC)N(C)[C@H]3[C@@](O)(C(=O)OC)[C@H](OC(C)=O)[C@]5(CC)C=CCN6CC[C@]43[C@@H]65)C2)C1 [VLB, vinblastine sulfate]
- necrotic cells [3]: 4.2 ± 1.0%
- apoptotic cells [3]: 27.4 ± 1.0%
- cells with active caspase-3 [9]: 23.4 ± 3.5%
- IC50 [1]: 148 ± 7.7 µg/mL
- cells with a reduced MMP [7]: 34.1 ± 3.0%
- autophagic cells ([10]; untreated control 4.8 ± 0.8%): 76.7 ± 0.5%
- nonautophagic cells ([10]; untreated control 94.5 ± 1.0%): 22.4 ± 0.6%
